Drawing on patent US20240425529A1, “BORIC ACID DERIVATIVE” (SHOUYAO HOLDINGS (BEIJING) CO., LTD., priority 2021, published 2024), this text covers IC50 for twelve compounds.

Test [1] deals with T1, β5 (Homo sapiens, UniProt P28074).
T1 construct: using HEK-293 cell lysate as the enzyme source of D5; endogenous in cells; host or cells: HEK-293 (human embryonic kidney cells)
Kind of test: Enzymatic inhibitory activity on β5 (HEK-293 cell lysate, Ac-WLA-AMC substrate). In kind it is biochemical. The conditions noted are these: 1 hour pre-incubation. The source says:
β5 is a catalytic subunit of immunoproteasomes. In this experiment, an enzymatic detection platform was established using its hydrolytic enzyme activity and used for compound activity detection. Using Ac-WLA-AMC (Bonston Biochem, Cat #5-330) as a substrate for D5, the amount of fluorescent group AMC (7-amino-4-methylcoumarin) released after hydrolysis can reflect the enzymatic activity. […] We established an enzymatic detection method for compound inhibition on D5 using HEK-293 cell lysate as the enzyme source of D5 and detected the compound inhibitory activity (half inhibitory concentration, IC50). The enzymatic inhibitory activity of compounds against D5 was used as a measure index of compound selectivity.
(§1) HEK-293 cells were cultured in a 75 cm^2 cell culture flask (Corning) (37° C., 95% air, and 5% CO2) with DMEM (Biological Industries) medium containing 10% fetal bovine serum (Biological Industries) and 1% Pen Strep (Gibco) and passaged 2-3 times one week. 1×10^7 HEK-293 cells were collected, resuspended in 1 ml of PBS (Solarbio), and centrifuged at 3000 rpm for 5 minutes. The supernatant was aspirated off. The cells were resuspended in 500 μl of lysis buffer (20 mM Tris, pH 8.0, 5 mM EDTA, plus Protease inhibitor (1:1000) and Phosphatase Inhibitor (1:100) when used) and left on ice for 30 minutes. The cells were broken by supersonic technique, 0.5 S on, 0.5 S off, for 2.5 S. The centrifuge was performed at 12000 rpm, 4° C. for 10 minutes. The supernatant was the cell lysate and protein quantification was performed using the BCA method (Thermo, #23225).
Compounds were diluted in a 5-fold gradient with 100% DMSO for a total of 9 concentrations. 2 W for each concentration was added to a 48-μl reaction buffer (20 mM Tris, pH 8.0, 0.5 mM EDTA) and mixed well as 4* compound (final concentrations: 100000, 20000, 4000, 800, 160, 32, 6.4, 1.28, and 0 nM) for later use. A reaction buffer was used to prepare 4*HEK-293 cell lysate at a final concentration of 25 ng/μl and 2*Ac-WLA-AMC at a final concentration of 20 μM. 5 W of 4* compound was added to a 384-well plate (OptiPlate-384, purchased from PerkinElmer), added with 5 W of 4*HEK-293 cell lysate, centrifuged, and reacted in an incubator at 23° C. for 1 hour. 10 W of 2* Ac-WLA-AMC was added and the reaction was started by centrifugation at 23° C. in the dark for 2 hours. After completion of the reaction, the signal value (excitation wavelength 345 nm/emission wavelength 445 nm) was read on the CLARIO star^Plus (purchased from BMG LRBTECH). Enzyme activity was determined at 9 concentrations for each compound, and data were processed using the GraphPad Prism software to calculate the half inhibitory concentration of the compound on D5, i.e. the IC50 value.

The target in test [2] is T2, LMP7 (Homo sapiens, UniProt P28062).
T2 construct: using MOLT-4 cell lysate as the enzyme source of LMP7; endogenous in cells; host or cells: MOLT-4 (human acute lymphoblastic leukemia cells)
Nature of the test: Cytological inhibitory activity on LMP7 in MOLT-4 cells. The format is cell-based. To be noted: incubation for 2 hours with compound, read-out: Cytological activity data LMP7 Activity (MOLT-4Cell). On the procedure: MOLT-4 are human acute lymphoblastic leukemia cells and have been identified as cells with high expression of LMP7. In this experiment, the compounds were pre-incubated with MOLT-4, and Ac-ANW-AMC (BonstonBiochem, Cat #S-320) was used as the substrate of LMP7 to establish the detection method for the enzymatic activity of LMP7 in cells and detect the compound inhibitory activity (half inhibitory concentration, IC50).
Cells were plated in a 24-well plate (Corning) at a concentration of 1.5×10^5/ml per well. The next day compounds were prepared and diluted in a 5-fold gradient from 2 mM in 100% DMSO for a total of 8 concentrations. 2 μl for each concentration of the compound was added to a 1-ml cell culture medium, supplemented with 1 ml of RPMI-1640 only (final FBS concentration 5%, v/v). The compounds were mixed with the cells. After incubation for 2 hours in the incubator, the cells were centrifuged at 2000 rpm for 8 minutes to discard the supernatant. The cells were washed once with 2 ml PBS (Solarbio), and centrifuged again to discard the supernatant. The cells were resuspended in 100 μl of lysis buffer (20 mM Tris, pH 8.0, 5 mM EDTA, plus Protease inhibitor (1: 100) and Phosphatase Inhibitor (1:100) when used) and left in a 4° C. refrigerator for 45 minutes.
After 2 min. of centrifuge at 2000 rpm, the lysate was transferred from the 24-well plate to a 96-well plate, and centrifuged at 2000 rpm, 4° C., for 15 min. The supernatant was the lysate. Protein quantification was performed using the BCA method (Thermo, #23225). A 2* lysate was prepared with the reaction buffer (20 mM Tris, pH 8.0, 0.5 mM EDTA) at a final concentration of 20 ng/μl. 2* Ac-ANW-AMC was prepared with the reaction buffer at a final concentration of 100 μM. 10 µl of 2* lysate was added to a 384-well plate (OptiPlate-384, purchased from PerkinElmer), and added with 10 W of 2* Ac-ANW-AMC. The reaction was started by centrifugation at 23° C. in the dark for 1 hour. After completion of the reaction, the signal value (excitation wavelength 345 nm/emission wavelength 445 nm) was read on the CLARIO starPlus (purchased from BMG LRBTECH). Enzyme activity was determined at 8 concentrations for each compound, and data were processed using the GraphPad Prism software to calculate the half inhibitory concentration of the compound on LMP7 hydrolase in MOLT-4 cells, i.e. the IC50 value.

For test [3], the target named is T2, LMP7. Kind of test: Enzymatic inhibitory activity on LMP7 (MOLT-4 cell lysate, Ac-ANW-AMC substrate). The format is biochemical. The conditions noted are these: 1 hour pre-incubation.
Description: LMP7 is a catalytic subunit of immunoproteasomes. In this experiment, an enzymatic detection platform was established using its hydrolytic enzyme activity and used for compound activity detection. Using Ac-ANW-AMC (Bonston Biochem, Cat #S-320) as a substrate for LMP7, the amount of fluorescent group AMC (7-amino-4-methylcoumarin) released after hydrolysis can reflect the enzymatic activity. MOLT-4 cells are human acute lymphoblastic leukemia cells and have been identified as cells with high expression of LMP7. We established an enzymatic detection method for compound inhibition on LMP7 using MOLT-4 cell lysate as the enzyme source of LMP7 and detected the compound inhibitory activity (half inhibitory concentration, IC50).
as §1, with “MOLT-4 cells were” for “HEK-293 cells were”, “CO2) with RPMI-1640 (Biological Industries)” for “CO2) with DMEM (Biological Industries)”, “week. 1×10^7 MOLT-4 cells were” for “week. 1×10^7 HEK-293 cells were”, “was performed by using the” for “was performed using the”
Compounds were diluted in a 5-fold gradient with 100% DMSO for a total of 9 concentrations: 2 W for each concentration was added to a 48-μl reaction buffer (20 mM Tris, pH 8.0, 0.5 mM EDTA) and mixed well as 4* compound (final concentrations: 2000, 400, 80, 16, 3.2, 0.64, 0.128, 0.0256, and 0 nM) for later use. A reaction buffer was used to prepare 4* MOLT-4 cell lysate at a final concentration of 20 ng/μl and 2*Ac-ANW-AMC at a final concentration of 100 µM. 5 μl of 4* compound was added to a 384-well plate (OptiPlate-384, purchased from PerkinElmer), added with 5 W of 4* cell lysate, centrifuged, and reacted in an incubator at 23° C. for 1 hour. 10 W of 2* Ac-ANW-AMC was added and the reaction was started by centrifugation at 23° C. in the dark for 2 hours. After completion of the reaction, the signal value (excitation wavelength 345 nm/emission wavelength 445 nm) was read on the CLARIO star^Plus (purchased from BMG LRBTECH). Enzyme activity was determined at 9 concentrations for each compound, and data were processed using the GraphPad Prism software to calculate the half inhibitory concentration of the compound on LMP7, i.e. the IC50 value.

`C[C@@H]1COB([C@H](Cc2coc3ccccc23)NC(=O)C(=O)Nc2cnccn2)O1` [Ex. 69]: the IC50 in test [1] turned out to be 18.2 nM; in test [2] it was 0.88 nM; in test [3], 1.44 nM.
The matching figures for `O=C(Nc1cc(Cl)ccc1Cl)C(=O)N[C@@H](Cc1coc2ccccc12)B(O)O` [Ex. 24, ((R)-2-(benzofuran-3-yl)-1-(2-oxo-2-((2,5-dichlorophenyl)amino)acetamido)ethyl)boronic acid]: 115 nM, 3.92 nM and 6.27 nM.
As for `Cc1cnc(NC(=O)C(=O)N[C@@H](Cc2coc3ccccc23)B(O)O)cn1` [Ex. 46, (R)-(2-(benzofuran-3-yl)-1-(2-oxo-2-((5-methylpyrazin-2-yl)amino)acetamido)ethyl)boronic acid], the IC50 in test [1] was 93.8 nM; in test [2], 2.29 nM; in test [3], 7.83 nM.
The matching figures for `COC(=O)C(=O)N[C@@H](Cc1coc2ccccc12)B(O)O` [Ex. 62, (R)-(2-(benzofuran-3-yl)-1-(2-oxo-2-methoxyacetamido)ethyl)boronic acid]: 1300 nM, 26.7 nM and 7.89 nM.
The matching figures for `CN(C)c1ccnc(NC(=O)C(=O)N[C@@H](Cc2coc3ccccc23)B(O)O)c1` [Ex. 50, (R)-(2-(benzofuran-3-yl)-1-(2-oxo-2-((4-dimethylaminopyridin-2-yl)amino)acetamido)ethyl)boronic acid]: 357 nM, 7.91 nM and 5.96 nM.
The corresponding values for `COc1ncccc1NC(=O)C(=O)N[C@@H](Cc1coc2ccccc12)B(O)O` [Ex. 45, (R)-(2-(benzofuran-3-yl)-1-(2-oxo-2-((2-methoxypyridin-3-yl)amino)acetamido)ethyl)boronic acid] are 97.7 nM, 22.7 nM and 5.32 nM.
For `O=C(N[C@@H]1CCOC1)C(=O)N[C@@H](Cc1coc2ccccc12)B(O)O` [Ex. 44, ((R)-2-(benzofuran-3-yl)-1-(2-oxo-2(((R)-tetrahydrofuran-3-yl)amino)acetamido)ethyl) boronic acid], the IC50 came out at 54.2 nM in test [1], 15.9 nM in test [2] and 4.91 nM in test [3].
The corresponding values for `Cn1ccnc1NC(=O)C(=O)N[C@@H](Cc1coc2ccccc12)B(O)O` [Ex. 37, (R)-(2-(benzofuran-3-yl)-1-(2-oxo-2-((1-methyl-1H-imidazol-2-yl)amino)acetamido)ethyl)boronic acid] are 264 nM, 111 nM and 5.93 nM.
The corresponding values for `O=C(Nc1nccs1)C(=O)N[C@@H](Cc1coc2ccccc12)B(O)O` [Ex. 13, (R)-(2-(benzofuran-3-yl)-1-(2-oxo-2-(thiazol-2-ylamino)acetamido)ethyl) boronic acid] are 58.7 nM, 4.06 nM and 3.13 nM.
On to `O=C(Nc1ncc(F)s1)C(=O)N[C@@H](Cc1coc2ccccc12)B(O)O` [Ex. 34, (R)-(2-(benzofuran-3-yl)-1-(2-oxo-2-((5-fluorothiazol-2-yl)amino)acetamido)ethyl)boronic acid], for which the IC50 in test [1] is 132 nM; in test [2] it was 29.2 nM; in test [3], 7.46 nM.
The matching figures for `O=C(Nc1ncc(Cl)s1)C(=O)N[C@@H](Cc1coc2ccccc12)B(O)O` [Ex. 36, (R)-(2-(benzofuran-3-yl)-1-(2-oxo-2-((5-chlorothiazol-2-yl)amino)acetamido)ethyl)boronic acid]: 54.5 nM, 19.5 nM and 3.14 nM.
The corresponding values for `O=C(NCC1CCCO1)C(=O)N[C@@H](Cc1coc2ccccc12)B(O)O` (stereo partly drawn) [Ex. 22, (R)-(2-(benzofuran-3-yl)-1-(2-(((tetrahydrofuran-2-yl)methyl)amino)-2-oxoacetamido)ethyl)boronic acid] are 22.2 nM, 1.83 nM and 3.57 nM.
